Laboratory results from publication PMC12610161, “Structural Engineering of Tyrosine-Based Neuroprotective Peptides: A New Strategy for Efficient Blood–Brain Barrier Penetration” (Foods, 2025).
Where “and” joins values, the source holds several entries; their conditions need not be identical. Identical values can stand only once. Like-named read-outs stand apart in the source and are kept apart here. Ends that are not written are not given here.

Tests used:
[1] = set-up: method as in PMID 22934681; conditions: cited from earlier work
[2] = Transwell in vitro BBB model, apparent permeability; format: in vitro ADME; conditions: mouse, 100 µM in upper chamber, bEnd.3 monolayer, RP-HPLC of lower chamber
Description: The method described by Han et al. was referenced and modified. Briefly, 500 µL of bEnd.3 cells at a density of 5 × 10^4 cells/mL were seeded in the upper chamber of Transwell (0.4 µm, 12-well, PET material), and 1.5 mL of DMEM was added to the lower chamber to ensure the upper and lower chambers were aligned. After cell adherence, the culture medium in the upper chamber was changed daily, while the culture medium in the lower chamber was changed every other day. Once the transendothelial electrical resistance (TEER) was > 200 Ω·cm^2, both the upper and lower chambers were replaced with serum-free DMEM. After 12 h, EV and TW peptides, solubilized in HBSS at a concentration of 100 µM, were added to the upper chamber. After 4 h, the samples were collected separately, and RP-HPLC detection, along with Origin 2021 mapping analysis, was performed. TEER and apparent permeability coefficient (Papp) were calculated as follows:TEER = (TEERsample − TEERcontrol) × Cell Culture Area(5) (6) Papp=∆C·V/∆t·C0·A(cm/s) where ΔC represents the concentration in the lower chamber (µM), V is the volume of the lower chamber (mL), Δt indicates the experimental time (s), C0 is the initial concentration in the upper chamber, and A is the membrane area of the Transwell (cm^2).

[3] = test system: HT22 cells; format: cell-based; conditions: mouse, 24 h, 100 µM
Description: Mouse brain microvascular endothelial cells (bEnd.3) and mouse hippocampal neuron cells (HT22) were purchased from Zhong Qiao Xin Zhou Biological Technology Ltd. (Shanghai, China). Cells were cultured in DMEM (Cat # 11965092, Gibco, New York, USA) supplemented with 1% (v/v) penicillin/streptomycin (MA0110, MeilunBio, Dalian, China) and 10% (v/v) fetal bovine serum (C04001-500, Vivacell, Shanghai, China) in a 5% CO2 humidified incubator at 37 °C, and passaged every 2 days. When cell confluence reached 85–90%, cells were seeded into 6/12 well plates at a density of 1 × 10^5 cells/mL. Once the confluence reached 85–90% again, the cells were cultured in H2O2 medium at varying concentrations for 2 h as a model group. Cell viability was assessed using MTT at 0.1 mg/mL, and the optimal H2O2 concentration was determined when the cell viability approached 50%.
When cell confluence reached 80–90%, they were incubated with 100 µM EV peptides and TW peptides, respectively, for 24 h, followed by injury with 800 µM H2O2 for 2 h to observe the protective effect of the peptides. Among them, the model group was directly injured after 24 h of incubation with DMEM.

[4] = in vivo; conditions: C57/BJ, mouse, po
Description: Six C57/BJ mice were randomly selected, and the peptides [sequence] and [sequence] were administered via gavage, respectively. After 10 h, the mice were euthanized by cervical dislocation, and the brains were harvested. For analysis, 3 mL of normal saline was added to each gram of brain tissue, which was then homogenized. The sample was diluted in a ratio of 1:3 with methanol solution, mixed thoroughly, and centrifuged at 12,000 rpm for 10 min. The resulting supernatant was collected for RP-HPLC analysis.
(§1) Gradient elution was conducted with a mobile phase consisting of pure water with 0.1% TFA (mobile phase A) and acetonitrile containing 0.1% TFA (mobile phase B). […] This was performed for 25 min at a flow rate of 1 mL/min.

[5] = in vitro
Description: Walnut peptides were dissolved in distilled water to prepare a 100 µM aqueous solution. The pH was adjusted to 2.0, and pepsin was added to simulate gastric juice digestion. After 1 and 2 h in a 37 °C water bath, 1 mL of the sample was taken and stored at 4 °C for subsequent use. The pH of the remaining solution was then adjusted to 7.0, and 5 mg/mL trypsin was added to simulate intestinal digestion. After 1 and 2 h in a 37 °C water bath, 1 mL samples were taken, filtered through a 0.22 µm pore size membrane, and analyzed via RP-HPLC.
as §1

[6] = in vitro; conditions: KM, mouse, plasma; for half-life at 166.7 µM: In vitro plasma half-life
Description: The plasma half-life was evaluated utilizing KM mice (20 ± 2 g) obtained from Changsheng Biotechnology Co., Ltd. (Benxi, Liaoning, China). After the adaptation period, the mice were euthanized by cervical dislocation. Blood was collected from the heart and immediately transferred into an EP tube containing heparin sodium. After standing for 2 h, the plasma was separated by centrifugation at 4500 rpm at 4 °C for 15 min. A 500 µL aliquot of 500 µM peptide solution was added to 1 mL of blank plasma, mixed thoroughly by vortexing, and methanol was added in a 1:3 ratio. After vortexing for 1 min, the mixture was centrifuged at 12,000 rpm for 10 min, and the resulting supernatant was collected for RP-HPLC analysis.
Gradient elution was conducted with a mobile phase consisting of pure water with 0.1% TFA (mobile phase A) and acetonitrile containing 0.1% TFA (mobile phase B). The elution process for mobile phase B was as follows: [sequence]: 10−35%, [sequence]: 8−33%, [sequence]: 5−30%, [sequence]: 4−29%, TWLPLPR: 24−49%, TWLPYPR: 21−46%, TWLPRPR: 16−41%, TWLPKPR: 15−40%, YVPFPLP, YVPFPYP: 11–34%. This was performed for 25 min at a flow rate of 1 mL/min.

[7] = set-up: method as in PMID 29463072; conditions: cited from earlier work
[8] = test system: in vitro BBB model; conditions: cited from earlier work
[9] = DPPH radical scavenging activity; conditions: substrate concentration 1 mg/mL (printed for EV peptides); 30 min, 517 nm
Description: A modified DPPH scavenging assay was conducted following the method described by Shen et al.. 0.0023 g of DPPH was mixed with 100 mL of 95% absolute ethanol to prepare a 60 µmol/L DPPH radical working solution. The sample was then mixed with 60 µmol/L DPPH free radical working solution at a 1:1 (v/v) ratio, mixed thoroughly, and allowed to stand in the dark for 30 min. The mixture was then centrifuged at 4500 rpm for 10 min. The absorbance was measured at a wavelength of 517 nm and compared with an equivalent concentration of GSH. The DPPH radical scavenging rate was calculated using the following formula:(1) DPPH radical scavenging ratio % = 1−Aa−Ab/Ac×100% where Aa represents the absorbance value of EV, TW and YV peptides solution added to DPPH scavenging radical working solution; Ab denotes the absorbance value of the solution with 95% (v/v) absolute ethanol and the […] scavenging radical working solution; Ac is the absorbance value after mixing distilled water and DPPH in equal volumes of 1:1.

[10] = ABTS radical scavenging activity; conditions: 1 mg/mL; 6 min, 734 nm
Description: ABTS scavenging radical determination was conducted following the procedure of Li et al. with slight modifications. A 7 mmol/L aqueous solution of ABTS and a 2.49 mmol/L aqueous solution of potassium persulfate were mixed in a 1:1 ratio. The mixture was allowed to stand in the dark at 4 °C for 12–16 h. The concentration was adjusted using 5 mmol/L PBS (pH 7.4) to ensure that the absorbance of the ABTS radical stock solution was 0.700 ± 0.002 at a wavelength of 734 nm. EV and TW peptide aqueous solutions (10 µL), each at a concentration of 1 mg/mL, were taken. A glutathione aqueous solution with the same substrate concentration was used as the control group. After adding the samples to a black 96-well plate, 190 µL of ABTS free radical working solution was added to each well. The absorbance at 734 nm was measured using a microplate reader after a 6 min reaction.
The ABTS clearance was calculated as follows:(2) ABTS radical scavenging rate % = 1−Aa−Ab/Ac×100% where Aa represents the sample; Ab represents the absorbance of the solution in which the ABTS working solution was substituted with 5 mmol/L PBS; Ac represents the absorbance of the blank group.

[11] = Oxygen radical absorbance capacity (ORAC) assay; conditions: substrate concentration 1 mg/mL (printed for EV peptides)
Description: ORAC assay was performed based on the technique of Simon et al., with minor modifications. First, in black 96-well plates, 25 µL of PBS buffer (75 mmol/L, pH 7.4), 25 µL of Trolox standard solutions (at concentrations of 6.25 µM, 12.5 µM, 25 µM, 50 µM), and the peptide solution were added at a 1:1 volume ratio. Then, the samples were incubated at 37 °C for 10 min. Subsequently, 150 µL of […] sodium fluorescein was added to all wells and incubated at 37 °C for 20 min. Following this, 25 µL of 6 mmol/L azobisisobutyramidine hydrochloride (AAPH) solution was quickly added to each well. Two control groups were established: one consisted of a black 96-well plate with free radicals (+AAPH), while the other group included a black 96-well plate without free radicals (−AAPH). Both plates were placed in a microplate reader and shaken for 5 s. The excitation wavelength was set to 485 ± 20 nm, and the emission wavelength was set to 530 ± 10 nm. The entire system was set at 37 °C, and the fluorescence intensity was measured every 2 min. […]
The measurement results were expressed as ORAC values using the following formula:ORAC value = [(AUCpeptide − AUCblank)/(AUtrolox − AUCblank)] × Ctrolox/Cpeptide(4) […]

Compound: H-Tyr-D-Ala-Gly-MePhe-Gly-ol
- Plasma half-life ([1]; embedded and delivered with GSH-PEG liposomes): 6.9 ± 2.3 h
- Plasma half-life ([1]; free peptide): 0.153 ± 0.035 h

Compound: YVPFPLP [YVPFPLP]
- Papp A→B at 4 h, 100 µM [2]: 0.999 ×10⁻⁶ cm/s

Compound: EVSGPGLSPN [EVSGPGLSPN]
- Papp at 4 h, 100 µM [2]: 3.78 ×10⁻⁶ cm/s
- Cell viability (MTT) [3]: 78.63 ± 0.86%
- tissue level at time at 10 h [4]: 250 ± 110 ng/g
- recovery at 100 µM [5]: 19.5 ± 3.33%
- metabolised at 48 h, 167 µM [6]: 2.23%
- remaining at 1 h, 167 µM [6]: 99.75 ± 0.35%
- remaining at 2 h, 167 µM [6]: 99 ± 0.75%
- remaining at 4 h, 167 µM [6]: 98.13 ± 0.06%
- remaining at 8 h, 167 µM [6]: 97.86 ± 0.49%
- remaining at 12 h, 167 µM [6]: 96.86 ± 0.5%
- remaining at 24 h, 167 µM [6]: 95.62 ± 0.64%
- remaining at 36 h, 167 µM [6]: 94.96 ± 0.36%
- remaining at 48 h, 167 µM [6]: 94.77 ± 0.64%
- half-life at 166.7 µM [6]: > 48 h

Compound: EVSGPGYSPN [EVSGPGYSPN]
- Papp at 4 h, 100 µM [2]: 8.1 ×10⁻⁶ cm/s
- Cell viability (MTT) [3]: 86.88 ± 3.18%
- tissue level at time at 10 h [4]: 1250 ± 910 ng/g
- recovery at 100 µM [5]: 13.99 ± 0.02%
- remaining at 1 h, 167 µM [6]: 96.64 ± 0.53%
- remaining at 2 h, 167 µM [6]: 92.42 ± 0.74%
- remaining at 4 h, 167 µM [6]: 80.5 ± 0.65%
- remaining at 8 h, 167 µM [6]: 58.64 ± 0.52%
- remaining at 12 h, 167 µM [6]: 51 ± 0.64%
- remaining at 24 h, 167 µM [6]: 24.3 ± 1.94%
- remaining at 36 h, 167 µM [6]: 0%
- remaining at 48 h, 167 µM [6]: 0%
- half-life at 166.7 µM [6]: > 12 h

Compound: TWLPKPR [TWLPKPR]
- Papp A→B at 4 h, 100 µM [2]: 3.45 ×10⁻⁶ cm/s

Compound: eveltivir
- Maximum concentration in the brain [7]: 46.5 ± 3.5 ng/g

Compound: TWLPYPR [TWLPYPR]
- Papp A→B at 4 h, 100 µM [2]: 7.06 ×10⁻⁶ cm/s

Compound: EVSGPGKSPN [EVSGPGKSPN]
- Papp A→B at 4 h, 100 µM [2]: 1.36 ×10⁻⁶ cm/s

Compound: YVPFPYP [YVPFPYP]
- Papp at 4 h, 100 µM [2]: 3.62 ×10⁻⁶ cm/s

Compound: TWLPLPR [TWLPLPR]
- Papp A→B at 4 h, 100 µM [2]: 6.85 ×10⁻⁶ cm/s

Compound: Gly-Sar
- Apparent permeability [8]: 7.60 ± 1.29 µL/g/min

Compound: N[C@@H](CCC(=O)N[C@@H](CS)C(=O)NCC(=O)O)C(=O)O [GSH, glutathione]
- DPPH radical scavenging rate [9]: 70.98 ± 1.09% and 70 ± 1.09%
- ABTS radical scavenging rate [10]: 73.20 ± 2.54%
- ORAC value [11]: 1003.3 ± 18.6 µmol TE/g
